Measured values: PubChem BioAssay (NCI)
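GI50: concentration for 50% inhibition of growth. At the TGI there is no net growth.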

Tests used:
Assay in all cases: inhibition of tumour cell growth, NCI panel, 384-well format
[1] = system: 786-0 renal
[2] = system: A498 renal
[3] = system: A549 NSCLC
[4] = system: ACHN renal
[5] = system: BT-549 breast
[6] = system: CAKI-1 renal
[7] = system: CCRF-CEM leukemia
[8] = system: COLO 205 colon
[9] = system: DU-145 prostate
[10] = system: EKVX NSCLC
[11] = system: HCC-2998 colon
[12] = system: HCT-116 colon
[13] = system: HCT-15 colon
[14] = system: HL-60(TB) leukemia
[15] = system: HOP-62 NSCLC
[16] = system: HOP-92 NSCLC
[17] = system: HS 578T breast
[18] = system: HT29 colon
[19] = system: IGROV1 ovarian
[20] = system: K-562 leukemia
[21] = system: KM12 colon
[22] = system: LOX IMVI melanoma
[23] = system: M14 melanoma
[24] = system: MALME-3M melanoma
[25] = system: MCF7 breast
[26] = system: MDA-MB-231 breast
[27] = system: MDA-MB-435 melanoma
[28] = system: MDA-MB-468 breast
[29] = system: MOLT-4 leukemia
[30] = system: NCI-H226 lung
[31] = system: NCI-H23 lung
[32] = system: NCI-H322M lung
[33] = system: NCI-H460 NSCLC
[34] = system: NCI-H522 lung
[35] = system: NCI/ADR-RES ovarian
[36] = system: OVCAR-3 ovarian
[37] = system: OVCAR-4 ovarian
[38] = system: OVCAR-5 ovarian
[39] = system: OVCAR-8 ovarian
[40] = system: PC-3 prostate
[41] = system: RPMI-8226 leukemia
[42] = system: RXF 393 renal
[43] = system: SF-268 CNS
[44] = system: SF-295 CNS
[45] = system: SF-539 CNS
[46] = system: SK-MEL-2 melanoma
[47] = system: SK-MEL-28 melanoma
[48] = system: SK-MEL-5 melanoma
[49] = system: SK-OV-3 ovarian
[50] = system: SN12C renal
[51] = system: SNB-19 CNS
[52] = system: SNB-75 CNS
[53] = system: SR leukemia
[54] = system: SW-620 colon
[55] = system: T-47D breast
[56] = system: TK-10 renal
[57] = system: U251 glioblastoma
[58] = system: UACC-257 melanoma
[59] = system: UACC-62 melanoma
[60] = system: UO-31 renal

In the case of Nc1ccn([C@@H]2C(F)=C(CO)[C@@H](O)[C@H]2O)c(=O)n1, the GI50 [1] is reported as 1090 nM, the TGI [1] is reported as > 100000 nM and the GI50 [2] is reported as 1510 nM. The TGI [2] was 13600 nM, the GI50 [3] was 461 nM and the TGI [3] was > 35600 nM. The GI50 [4] was 923 nM, the TGI [4] was > 73100 nM and the GI50 [5] was 25400 nM. The TGI [5] was > 100000 nM, the GI50 [6] was 383 nM and the GI50 [7] was 825 nM. It also gave a TGI [7] of 2590 nM, a GI50 [8] of 775 nM and a TGI [8] of 3960 nM. It also gave a GI50 [9] of 396 nM, a TGI [9] of 1810 nM and a GI50 [10] of 33500 nM. For the same compound, the TGI [10] was > 100000 nM, the GI50 [11] was 1710 nM and the TGI [11] was > 100000 nM. The GI50 [12] was 409 nM, the TGI [12] was 21400 nM and the GI50 [13] was 1090 nM. For the same compound, the TGI [13] was > 100000 nM, the GI50 [14] was 374 nM and the TGI [14] was 979 nM. The GI50 [15] was 1260 nM, the TGI [15] was 31500 nM and the GI50 [16] was 745 nM. The TGI [16] was 5650 nM, the GI50 [17] was 13400 nM and the TGI [17] was > 100000 nM. The GI50 [18] was 922 nM, the TGI [18] was > 42700 nM and the GI50 [19] was 3950 nM. The TGI [19] was > 100000 nM, the GI50 [20] was 474 nM and the TGI [20] was > 100000 nM. The GI50 [21] was 2140 nM, the TGI [21] was > 100000 nM and the GI50 [22] was 791 nM. The TGI [22] was 12000 nM, the GI50 [23] was 763 nM and the TGI [23] was > 21200 nM. The GI50 [24] was 4430 nM, the TGI [24] was > 100000 nM and the GI50 [25] was 1020 nM. For the same compound, the TGI [25] was > 100000 nM, the GI50 [26] was 1320 nM and the TGI [26] was > 93800 nM. The GI50 [27] was 967 nM, the TGI [27] was > 100000 nM and the GI50 [28] was 38400 nM. For the same compound, the TGI [28] was > 100000 nM, the GI50 [29] was 182 nM and the TGI [29] was 338 nM. For the same compound, the GI50 [30] was 13500 nM, the TGI [30] was > 100000 nM and the GI50 [31] was 3070 nM. The TGI [31] was 13100 nM, the GI50 [32] was 5740 nM and the TGI [32] was > 100000 nM. For the same compound, the GI50 [33] was 361 nM, the TGI [33] was 5460 nM and the GI50 [34] was 539 nM. It also gave a TGI [34] of 57300 nM, a GI50 [35] of 882 nM and a TGI [35] of 4300 nM. The GI50 [36] was 4470 nM, the TGI [36] was > 100000 nM and the GI50 [37] was 23500 nM. The TGI [37] was > 100000 nM, the GI50 [38] was 1020 nM and the TGI [38] was > 28300 nM. For the same compound, the GI50 [39] was 704 nM, the TGI [39] was > 23900 nM and the GI50 [40] was 5230 nM. For the same compound, the TGI [40] was > 78700 nM, the GI50 [41] was 292 nM and the TGI [41] was 922 nM. For the same compound, the GI50 [42] was 2340 nM, the TGI [42] was > 72100 nM and the GI50 [43] was 2700 nM. For the same compound, the TGI [43] was > 100000 nM, the GI50 [44] was 2840 nM and the TGI [44] was > 92800 nM. The GI50 [45] was 1610 nM, the TGI [45] was > 100000 nM and the GI50 [46] was 19800 nM. For the same compound, the TGI [46] was > 100000 nM, the GI50 [47] was 1250 nM and the TGI [47] was > 100000 nM. It also gave a GI50 [48] of 7700 nM, a TGI [48] of 68500 nM and a GI50 [49] of 5570 nM. The TGI [49] was > 59600 nM, the GI50 [50] was 500 nM and the TGI [50] was 4900 nM. For the same compound, the GI50 [51] was 3370 nM, the TGI [51] was > 100000 nM and the GI50 [52] was 12300 nM. For the same compound, the TGI [52] was > 100000 nM, the GI50 [53] was 183 nM and the TGI [53] was 344 nM. The GI50 [54] was 893 nM, the TGI [54] was > 50700 nM and the GI50 [55] was 10700 nM. For the same compound, the TGI [55] was > 100000 nM, the GI50 [56] was 689 nM and the TGI [56] was > 100000 nM. The GI50 [57] was 2780 nM, the TGI [57] was > 100000 nM and the GI50 [58] was 28200 nM. For the same compound, the TGI [58] was > 96500 nM, the GI50 [59] was 3870 nM and the TGI [59] was > 100000 nM.

CN(C)C/C=C/C(=O)Nc1ccc(C(=O)N2CCC[C@@H](Nc3ncc(Cl)c(-c4c[nH]c5ccccc45)n3)C2)cc1 was tested, and the GI50 [1] was 241 nM, the TGI [1] was 683 nM and the GI50 [3] was 294 nM. It also gave a TGI [3] of 967 nM, a GI50 [4] of 1890 nM and a TGI [4] of 11200 nM. The GI50 [5] was 16.4 nM, the TGI [5] was 37.6 nM and the GI50 [7] was 28 nM. The TGI [7] was 74.5 nM, the GI50 [8] was 19 nM and the TGI [8] was 42.9 nM. It also gave a GI50 [11] of 17.8 nM, a TGI [11] of 38.1 nM and a GI50 [12] of 31 nM. The TGI [12] was 1170 nM, the GI50 [13] was 3050 nM and the TGI [13] was 9820 nM. For the same compound, the GI50 [14] was 22.7 nM, the TGI [14] was 37.4 nM and the GI50 [15] was 159 nM. It also gave a TGI [15] of 581 nM, a GI50 [18] of 165 nM and a TGI [18] of 478 nM. For the same compound, the GI50 [19] was 22.9 nM, the TGI [19] was 69.5 nM and the GI50 [20] was 39.7 nM. The TGI [20] was 840 nM, the GI50 [21] was 34.7 nM and the TGI [21] was 160 nM. The GI50 [22] was 25.6 nM, the TGI [22] was 48 nM and the GI50 [23] was 106 nM. It also gave a TGI [23] of 279 nM, a GI50 [24] of 19.6 nM and a TGI [24] of 39.4 nM. The GI50 [25] was 26.6 nM, the TGI [25] was 1290 nM and the GI50 [26] was 25.4 nM. The TGI [26] was 72.3 nM, the GI50 [27] was 27 nM and the TGI [27] was 90.4 nM. The GI50 [28] was 17.7 nM, the TGI [28] was 33.7 nM and the GI50 [29] was 21.6 nM. It also gave a TGI [29] of 42.9 nM, a GI50 [31] of 27.4 nM and a TGI [31] of 117 nM. It also gave a GI50 [32] of 27.4 nM, a TGI [32] of 67.8 nM and a GI50 [33] of 184 nM. It also gave a TGI [33] of 424 nM, a GI50 [34] of 19 nM and a TGI [34] of 36.3 nM. For the same compound, the GI50 [36] was 18 nM, the TGI [36] was 38.2 nM and the GI50 [39] was 149 nM. The TGI [39] was 398 nM, the GI50 [40] was 46.3 nM and the TGI [40] was 371 nM. The GI50 [41] was 151 nM, the TGI [41] was 285 nM and the GI50 [42] was 24.5 nM. The TGI [42] was 77.7 nM, the GI50 [43] was 20.5 nM and the TGI [43] was 44.7 nM. The GI50 [44] was 274 nM, the TGI [44] was 767 nM and the GI50 [45] was 20.1 nM. The TGI [45] was 43.6 nM, the GI50 [46] was 19.9 nM and the TGI [46] was 48.8 nM. It also gave a GI50 [47] of 20.8 nM, a TGI [47] of 48 nM and a GI50 [48] of 28.3 nM. It also gave a TGI [48] of 135 nM, a GI50 [49] of 38.6 nM and a TGI [49] of 352 nM. For the same compound, the GI50 [50] was 46.8 nM, the TGI [50] was 222 nM and the GI50 [51] was 33.3 nM. The TGI [51] was 1420 nM, the GI50 [53] was 16.4 nM and the TGI [53] was 30.3 nM. For the same compound, the GI50 [54] was 71.4 nM, the TGI [54] was 410 nM and the GI50 [56] was 389 nM. The TGI [56] was 14700 nM, the GI50 [57] was 48.2 nM and the TGI [57] was 399 nM. The GI50 [58] was 41.9 nM, the TGI [58] was 197 nM and the GI50 [59] was 92.7 nM. The TGI [59] was 321 nM, the GI50 [60] was 2190 nM and the TGI [60] was 5380 nM.
